Experimental data reported in US20160158317A1, “Antimicrobial Peptide Variants and Polynucleotides Encoding Same” (Adenium Biotech A/S, priority 2010, published 2016).
Where a SMILES comes first, the peptide text is derived from it. Bridges are numbered along the chain shown (N, C = ends).

Test: Determination of the protein binding (90% serum, 30 kDa filter, HPLC)
Format: in vitro ADME
Conditions: serum
Procedure: Protein binding assays were performed as follows. The purified peptides were mixed with 90% serum and centrifuged through a 30 kDa filter. The ultra-filtrate and the non filtrated serum samples were quantified by HPLC measurements and the protein binding was subsequently calculated.

SMILES | fraction unbound
CC(C)[C@@H]1NC(=O)CNC(=O)[C@H](CC(N)=O)NC(=O)[C@H](CCCNC(=N)N)NC(=O)[C@H](Cc2ccc(O)cc2)NC(=O)[C@H](Cc2c[nH]cn2)NC(=O)[C@@H]2CSSC[C@H](NC(=O)[C@H](C(C)C)NC(=O)[C@H](CCCNC(=N)N)NC1=O)C(=O)N[C@@H](Cc1ccc(O)cc1)C(=O)N[C@@H](CCCNC(=N)N)C(=O)N[C@@H](CCCNC(=N)N)C(=O)N[C@H](C(=O)N[C@@H](CC(N)=O)C(=O)O)CSSC[C@H](NC(=O)[C@H](Cc1ccccc1)NC(=O)CN)C(=O)N[C@@H](Cc1c[nH]c3ccccc13)C(=O)N[C@@H](Cc1ccc(O)cc1)C(=O)N[C@@H](C(C)C)C(=O)N2 [compound 23] (H-GFCWYVCHYRNGVRVCYRRCN-OH; disulfide 3-20, 7-16 (inferred); N-terminus and C-terminus assumed) | 0.02
CC(C)[C@@H]1NC(=O)CNC(=O)[C@H](CCCNC(=N)N)NC(=O)[C@H](CCCNC(=N)N)NC(=O)[C@H](Cc2ccc(O)cc2)NC(=O)[C@H](C(C)C)NC(=O)[C@@H]2CSSC[C@H](NC(=O)[C@H](C(C)C)NC(=O)[C@H](CCCNC(=N)N)NC1=O)C(=O)N[C@@H](Cc1c[nH]cn1)C(=O)N[C@@H](CCCNC(=N)N)C(=O)N[C@@H](CCCNC(=N)N)C(=O)N[C@H](C(=O)N[C@@H](CC(N)=O)C(=O)O)CSSC[C@H](NC(=O)[C@H](Cc1ccccc1)NC(=O)CN)C(=O)N[C@@H](Cc1c[nH]c3ccccc13)C(=O)N[C@@H](CC(N)=O)C(=O)N[C@@H](C(C)C)C(=O)N2 [compound 234] (H-GFCWNVCVYRRGVRVCHRRCN-OH; disulfide 3-20, 7-16 (inferred); N-terminus and C-terminus assumed) | 0.14
CC(C)[C@@H]1NC(=O)CNC(=O)[C@H](CC(N)=O)NC(=O)[C@H](CCCNC(=N)N)NC(=O)[C@H](CCCCN)NC(=O)[C@H](C(C)C)NC(=O)[C@@H]2CSSC[C@H](NC(=O)[C@H](C(C)C)NC(=O)[C@H](CCCNC(=N)N)NC1=O)C(=O)N[C@@H](Cc1ccc(O)cc1)C(=O)N[C@@H](CCCNC(=N)N)C(=O)N[C@@H](CCCNC(=N)N)C(=O)N[C@H](C(=O)N[C@@H](CC(N)=O)C(=O)O)CSSC[C@H](NC(=O)[C@H](Cc1ccccc1)NC(=O)CN)C(=O)N[C@@H](C)C(=O)N[C@@H](CCCNC(=N)N)C(=O)N[C@@H](C(C)C)C(=O)N2 [compound 125] (H-GFCARVCVKRNGVRVCYRRCN-OH; disulfide 3-20, 7-16 (inferred); N-terminus and C-terminus assumed) | 0.1
CC(C)[C@@H]1NC(=O)CNC(=O)[C@H](CC(N)=O)NC(=O)[C@H](CCCNC(=N)N)NC(=O)[C@H](Cc2ccc(O)cc2)NC(=O)[C@H](C(C)C)NC(=O)[C@@H]2CSSC[C@H](NC(=O)[C@H](CO)NC(=O)[C@H](CCCNC(=N)N)NC1=O)C(=O)N[C@@H](Cc1ccc(O)cc1)C(=O)N[C@@H](CCCNC(=N)N)C(=O)N[C@@H](CCCNC(=N)N)C(=O)N[C@H](C(=O)N[C@@H](CC(N)=O)C(=O)O)CSSC[C@H](NC(=O)[C@H](Cc1ccccc1)NC(=O)CN)C(=O)N[C@@H](Cc1ccc(O)cc1)C(=O)N[C@@H](CCCCN)C(=O)N[C@@H](C(C)C)C(=O)N2 [compound 206] (H-GFCYKVCVYRNGVRSCYRRCN-OH; disulfide 3-20, 7-16 (inferred); N-terminus and C-terminus assumed) | 0.14
CC(C)[C@@H]1NC(=O)CNC(=O)[C@H](CC(N)=O)NC(=O)[C@H](CCCNC(=N)N)NC(=O)[C@H](Cc2ccc(O)cc2)NC(=O)[C@H](C(C)C)NC(=O)[C@@H]2CSSC[C@H](NC(=O)[C@H](CCCCN)NC(=O)[C@H](CCCNC(=N)N)NC1=O)C(=O)N[C@@H](Cc1c[nH]cn1)C(=O)N[C@@H](CCCNC(=N)N)C(=O)N[C@@H](CCCNC(=N)N)C(=O)N[C@H](C(=O)N[C@@H](CC(N)=O)C(=O)O)CSSC[C@H](NC(=O)[C@H](Cc1ccccc1)NC(=O)CN)C(=O)N[C@@H](Cc1c[nH]c3ccccc13)C(=O)N[C@@H](CCCNC(=N)N)C(=O)N[C@@H](C(C)C)C(=O)N2 [compound 315] (H-GFCWRVCVYRNGVRKCHRRCN-OH; disulfide 3-20, 7-16 (inferred); N-terminus and C-terminus assumed) | 0.07
CC(C)[C@@H]1NC(=O)CNC(=O)[C@H](CC(N)=O)NC(=O)[C@H](CCCNC(=N)N)NC(=O)[C@H](CCCNC(=N)N)NC(=O)[C@H](C)NC(=O)[C@@H]2CSSC[C@H](NC(=O)[C@H](C(C)C)NC(=O)[C@H](CCCNC(=N)N)NC1=O)C(=O)N[C@@H](Cc1ccc(O)cc1)C(=O)N[C@@H](CCCNC(=N)N)C(=O)N[C@@H](CCCNC(=N)N)C(=O)N[C@H](C(=O)N[C@@H](CC(N)=O)C(=O)O)CSSC[C@H](NC(=O)[C@H](Cc1ccccc1)NC(=O)CN)C(=O)N[C@@H](Cc1c[nH]c3ccccc13)C(=O)N[C@@H](Cc1c[nH]cn1)C(=O)N[C@@H](C(C)C)C(=O)N2 [compound 218] (H-GFCWHVCARRNGVRVCYRRCN-OH; disulfide 3-20, 7-16 (inferred); N-terminus and C-terminus assumed) | 0.01
CC(C)[C@@H]1NC(=O)[C@H](CCCNC(=N)N)NC(=O)[C@H](C)NC(=O)CNC(=O)[C@H](CC(N)=O)NC(=O)[C@H](CCCNC(=N)N)NC(=O)[C@H](Cc2ccc(O)cc2)NC(=O)[C@H](C(C)C)NC(=O)[C@@H]2CSSC[C@H](NC1=O)C(=O)N[C@@H](Cc1ccc(O)cc1)C(=O)N[C@@H](CCCNC(=N)N)C(=O)N[C@@H](CCCNC(=N)N)C(=O)N[C@H](C(=O)N[C@@H](CC(N)=O)C(=O)O)CSSC[C@H](NC(=O)[C@H](Cc1ccccc1)NC(=O)CN)C(=O)N[C@@H](Cc1c[nH]c3ccccc13)C(=O)N[C@@H](Cc1ccc(O)cc1)C(=O)N[C@@H](C(C)C)C(=O)N2 [compound 29] (H-GFCWYVCVYRNGARVCYRRCN-OH; disulfide 3-20, 7-16 (inferred); N-terminus and C-terminus assumed) | 0.01
CC(C)[C@@H]1NC(=O)CNC(=O)[C@H](CC(N)=O)NC(=O)[C@H](CCCNC(=N)N)NC(=O)[C@H](Cc2ccc(O)cc2)NC(=O)[C@H](C(C)C)NC(=O)[C@@H]2CSSC[C@H](NC(=O)[C@H](C(C)C)NC(=O)[C@H](CCCNC(=N)N)NC1=O)C(=O)N[C@@H](Cc1c[nH]cn1)C(=O)N[C@@H](CCCNC(=N)N)C(=O)N[C@@H](CCCNC(=N)N)C(=O)N[C@H](C(=O)N[C@@H](CC(N)=O)C(=O)O)CSSC[C@H](NC(=O)[C@H](Cc1ccccc1)NC(=O)CN)C(=O)N[C@@H](Cc1ccc(O)cc1)C(=O)N[C@@H](CCCNC(=N)N)C(=O)N[C@@H](C(C)C)C(=O)N2 [compound 210] (H-GFCYRVCVYRNGVRVCHRRCN-OH; disulfide 3-20, 7-16 (inferred); N-terminus and C-terminus assumed) | 0.11
CC(C)[C@@H]1NC(=O)CNC(=O)[C@H](CC(N)=O)NC(=O)[C@H](CCCNC(=N)N)NC(=O)[C@H](Cc2ccc(O)cc2)NC(=O)[C@H](C)NC(=O)[C@@H]2CSSC[C@H](NC(=O)[C@H](C)NC(=O)[C@H](CCCNC(=N)N)NC1=O)C(=O)N[C@@H](Cc1ccc(O)cc1)C(=O)N[C@@H](CCCNC(=N)N)C(=O)N[C@@H](CCCNC(=N)N)C(=O)N[C@H](C(=O)N[C@@H](CC(N)=O)C(=O)O)CSSC[C@H](NC(=O)[C@H](Cc1ccccc1)NC(=O)CN)C(=O)N[C@@H](Cc1c[nH]c3ccccc13)C(=O)N[C@@H](CCCNC(=N)N)C(=O)N[C@@H](C)C(=O)N2 [compound 418] (H-GFCWRACAYRNGVRACYRRCN-OH; disulfide 3-20, 7-16 (inferred); N-terminus and C-terminus assumed) | 0.08
CC(C)[C@@H]1NC(=O)[C@H](CC(N)=O)NC(=O)[C@H](Cc2c[nH]c3ccccc23)NC(=O)[C@@H](NC(=O)[C@H](Cc2ccccc2)NC(=O)CN)CSSC[C@@H](C(=O)N[C@@H](CC(N)=O)C(=O)O)NC(=O)[C@H](CCCNC(=N)N)NC(=O)[C@H](CCCNC(=N)N)NC(=O)[C@H](Cc2ccc(O)cc2)NC(=O)[C@@H]2CSSC[C@H](NC1=O)C(=O)N[C@@H](C)C(=O)N[C@@H](Cc1ccc(O)cc1)C(=O)N[C@@H](CCCNC(=N)N)C(=O)N[C@@H](CC(N)=O)C(=O)NCC(=O)N[C@@H](CCCCN)C(=O)N[C@@H](CCCNC(=N)N)C(=O)N[C@@H](C)C(=O)N2 [compound 411] (H-GFCWNVCAYRNGKRACYRRCN-OH; disulfide 3-20, 7-16 (inferred); N-terminus and C-terminus assumed) | 0.14
CC(C)[C@@H]1NC(=O)CNC(=O)[C@H](CC(N)=O)NC(=O)[C@H](CCCNC(=N)N)NC(=O)[C@H](Cc2ccc(O)cc2)NC(=O)[C@H](C(C)C)NC(=O)[C@@H]2CSSC[C@H](NC(=O)[C@H](CO)NC(=O)[C@H](CCCNC(=N)N)NC1=O)C(=O)N[C@@H](Cc1ccc(O)cc1)C(=O)N[C@@H](CCCNC(=N)N)C(=O)N[C@@H](CCCNC(=N)N)C(=O)N[C@H](C(=O)N[C@@H](CC(N)=O)C(=O)O)CSSC[C@H](NC(=O)[C@H](Cc1ccccc1)NC(=O)CN)C(=O)N[C@@H](C)C(=O)N[C@@H](CCCCN)C(=O)N[C@@H](C(C)C)C(=O)N2 [compound 120] (H-GFCAKVCVYRNGVRSCYRRCN-OH; disulfide 3-20, 7-16 (inferred); N-terminus and C-terminus assumed) | 0.31
CC(C)[C@@H]1NC(=O)[C@@H]2CSSC[C@H](NC(=O)[C@H](C)NC(=O)[C@H](CCCNC(=N)N)NC(=O)[C@H](CCCCN)NC(=O)CNC(=O)[C@H](CC(N)=O)NC(=O)[C@H](CCCNC(=N)N)NC(=O)[C@H](Cc3ccc(O)cc3)NC1=O)C(=O)N[C@@H](Cc1ccc(O)cc1)C(=O)N[C@@H](CCCNC(=N)N)C(=O)N[C@@H](CCCNC(=N)N)C(=O)N[C@H](C(=O)N[C@@H](CC(N)=O)C(=O)O)CSSC[C@H](NC(=O)[C@H](Cc1ccccc1)NC(=O)CN)C(=O)NCC(=O)N[C@@H](CCCNC(=N)N)C(=O)N[C@@H](C(C)C)C(=O)N2 [compound 386] (H-GFCGRVCVYRNGKRACYRRCN-OH; disulfide 3-20, 7-16 (inferred); N-terminus and C-terminus assumed) | 0.19
